For test [1], the target named is T1, recombinant human ALK5 (TGF-βR1) protein (Homo sapiens, UniProt P36897).
T1 construct: purchased Life Technologies PR9075A
T1 sequence (P36897 34-503): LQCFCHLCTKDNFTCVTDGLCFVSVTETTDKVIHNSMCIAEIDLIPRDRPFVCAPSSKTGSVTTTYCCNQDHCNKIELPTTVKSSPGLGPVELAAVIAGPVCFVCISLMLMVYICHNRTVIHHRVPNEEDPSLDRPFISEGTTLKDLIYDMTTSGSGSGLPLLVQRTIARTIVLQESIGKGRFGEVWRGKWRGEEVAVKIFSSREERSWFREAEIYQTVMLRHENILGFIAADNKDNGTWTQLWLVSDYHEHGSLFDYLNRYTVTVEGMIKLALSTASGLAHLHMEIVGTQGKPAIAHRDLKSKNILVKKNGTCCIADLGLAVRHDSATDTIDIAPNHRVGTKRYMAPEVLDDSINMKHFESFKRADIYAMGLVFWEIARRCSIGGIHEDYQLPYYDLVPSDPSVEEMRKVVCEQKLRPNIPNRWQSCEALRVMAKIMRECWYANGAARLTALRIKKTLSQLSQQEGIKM
Kind of test: Biochemical ALK5 (TGF-βR1) assay to measure pKi (LANCE Ultra ULight kinase assay). The note with it: apparent pKi, converted from pIC50 using the Cheng-Prusoff equation. An outline of the steps: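 TR-FRET kinase format: compound dose range 10 μM–25 pM equilibrated 60 min with human ALK5 and ULight-labelled topoisomerase 2α peptide in HEPES/MgCl2 buffer pH 7.5 with DTT. Reaction started with ATP (125 μM stock, 5× final), 60 min at 37° C, stopped with EDTA/Eu-anti-phospho antibody; pKi derived from pIC50 via Cheng-Prusoff.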

In test [2] the test system is TGF-β-stimulated SMAD3 phosphorylation in BEAS-2B cells. Kind of test: Cellular ALK5 potency assay, inhibition of TGF-β stimulated pSMAD3 formation in BEAS-2B cells. In kind it is cell-based. To be noted: Homo sapiens, inhibition of TGF-β (10 ng/mL) stimulated pSMAD3 formation, 1 hour compound incubation, read-out: BEAS2B pIC50 (converted). An outline of the steps: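 Phospho-SMAD3 was quantified by AlphaLISA in lysates of human lung epithelial BEAS-2B cells. Compound was added 1 h (37 °C, HEPES/BSA-supplemented HBSS) before a 30 min challenge with 10 ng/mL TGF-β. Values are pIC50 relative to stimulated cells without compound.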

In the case of `COCc1cccc(-c2n[nH]cc2-c2ccc3ncc(NCCN4CCN(C(C)C)CC4)cc3n2)c1` [Compound 14-17, N-[2-(4-isopropylpiperazin-1-yl)ethyl]-6-[3-[3-(methoxymethyl)phenyl]-1H-pyrazol-4-yl]-1,5-naphthyridin-3-amine], the Ki in test [1] was 3.98 to 31.6 nM. In addition, the IC50 in test [2] is 200 to 1260 nM.

Take `COCc1cccc(-c2n[nH]cc2-c2ccc3ncc(-c4cnn([C@H]5CCCC[C@H]5N)c4)cc3n2)c1` [Compound 14-18, (1R,2S)-2-[4-[6-[3-[3-(methoxymethyl)phenyl]-1H-pyrazol-4-yl]-1,5-naphthyridin-3-yl]pyrazol-1-yl]cyclohexanamine]: in test [1], the Ki is 0.0398 to 0.316 nM. The IC50 in test [2] is 25.1 to 158 nM.

On to `COCc1cccc(-c2[nH]cnc2-c2ccc3ncc(NCCN4CCNCC4)cc3n2)c1` [Compound 15-1, 6-(5-(3-(methoxymethyl)phenyl)-1H-imidazol-4-yl)-N-(2-(piperazin-1-yl)ethyl)-1,5-naphthyridin-3-amine], for which the Ki in test [1] is 3.98 to 31.6 nM. Besides, the IC50 in test [2] is 200 to 1260 nM.

As to `COCc1cccc(-c2[nH]cnc2-c2ccc3ncc(NCCN4CCN(C(C)C)CC4)cc3n2)c1` [Compound 15-2, N-[2-(4-isopropoylpiperazin-1-yl)ethyl]-6-[5-[3-(methoxymethyl)phenyl]-1H-imidazol-4-yl]-1,5-naphthyridin-3-amine], the Ki in test [1] was 3.98 to 31.6 nM. Further, the IC50 in test [2] is 200 to 1260 nM.

For `CNCCn1cc(-c2cnc3ccc(-c4nc[nH]c4-c4cccc(COC)c4)nc3c2)cn1` [Compound 15-3, 2-(4-(6-(5-(3-(methoxymethyl)phenyl)-1H-imidazol-4-yl)-1,5-naphthyridin-3-yl)-1H-pyrazol-1-yl)-N-methylethan-1-amine], the Ki in test [1] is 0.0398 to 0.316 nM. Besides, the IC50 in test [2] was 25.1 to 158 nM.

Turning to `CNCCn1cc(-c2cnc3ccc(-c4c[nH]nc4-c4cc(Cl)ccc4F)cc3c2)cn1` [Compound 16-1, 2-(4-(6-(3-(5-chloro-2-fluorophenyl)-1H-pyrazol-4-yl)quinolin-3-yl)-1H-pyrazol-1-yl)-N-methylethan-1-amine], the Ki in test [1] is no more than 0.0316 nM. Further, the IC50 in test [2] is no more than 20 nM.

In the case of `Fc1ccc(Cl)cc1-c1n[nH]cc1-c1ccc2ncc(-c3cn[nH]c3)cc2c1` [Compound 16-2, 6-[3-(5-chloro-2-fluoro-phenyl)-1H-pyrazol-4-yl]-3-(1H-pyrazol-4-yl)quinoline], the Ki in test [1] was 0.0398 to 0.316 nM. The IC50 in test [2] was no more than 20 nM.

With `CN1CCN(C2CCN(c3cnc4ccc(-c5c[nH]nc5-c5cc(Cl)ccc5F)cc4c3)CC2)CC1` [Compound 16-4, 6-[3-(5-chloro-2-fluoro-phenyl)-1H-pyrazol-4-yl]-3-[4-(4-methylpiperazin-1-yl)-1-piperidyl]quinoline], the Ki in test [1] was 0.398 to 3.16 nM. For the same compound, the IC50 in test [2] was 25.1 to 158 nM.

As for `CC(C)N1CCN(CCNc2cnc3ccc(-c4c[nH]nc4-c4cc(Cl)ccc4F)cc3c2)CC1` [Compound 16-5, 6-(3-(5-chloro-2-fluorophenyl)-1H-pyrazol-4-yl)-N-(2-(4-isopropylpiperazin-1-yl)ethyl)quinolin-3-amine], the Ki in test [1] was 0.398 to 3.16 nM. Also, the IC50 in test [2] was 25.1 to 158 nM.

For the compound `Fc1ccc(Cl)cc1-c1[nH]cnc1-c1ccc2ncc(-c3cn[nH]c3)cc2c1` [Compound 17-1, 6-(5-(5-chloro-2-fluorophenyl)-1H-imidazol-4-yl)-3-(1H-pyrazol-4-yl)quinoline], the Ki in test [1] was 0.0398 to 0.316 nM. Besides, the IC50 in test [2] was no more than 20 nM.

As for `CNCCn1cc(-c2cnc3ccc(-c4nc[nH]c4-c4cc(Cl)ccc4F)cc3c2)cn1` [Compound 17-2, 2-[4-[6-[5-(5-chloro-2-fluoro-phenyl)-1H-imidazol-4-yl]-3-quinolyl]pyrazol-1-yl]-N-methyl-ethanamine], in test [1], the Ki is no more than 0.0316 nM. For the same compound, in test [2], the IC50 was 25.1 to 158 nM.

As for `CC(C)N1CCN(CCNc2cnc3ccc(-c4nc[nH]c4-c4cc(Cl)ccc4F)cc3c2)CC1` [Compound 17-3, 6-(5-(5-chloro-2-fluorophenyl)-1H-imidazol-4-yl)-N-(2-(4-isopropylpiperazin-1-yl)ethyl)quinolin-3-amine], the Ki in test [1] was 0.398 to 3.16 nM. Further, in test [2], the IC50 was 25.1 to 158 nM.

For `Fc1ccc(Cl)cc1-c1[nH]cnc1-c1ccc2ncc(N3CCNCC3)cc2c1` [Compound 17-4, 6-(5-(5-chloro-2-fluorophenyl)-1H-imidazol-4-yl)-3-(piperazin-1-yl)quinoline], in test [1], the Ki was 0.398 to 3.16 nM. The IC50 in test [2] was 25.1 to 158 nM.

As to `Fc1ccc(Cl)cc1-c1[nH]cnc1-c1ccc2ncc(N3CCCNCC3)cc2c1` [Compound 17-6, 6-[5-(5-chloro-2-fluoro-phenyl)-1H-imidazol-4-yl]-3-(1,4-diazepan-1-yl)quinoline], the Ki in test [1] was 0.398 to 3.16 nM. For the same compound, the IC50 in test [2] was 25.1 to 158 nM.

On to `CN1CCN(C2CCN(c3cnc4ccc(-c5nc[nH]c5-c5cc(Cl)ccc5F)cc4c3)CC2)CC1` [Compound 17-7, 6-[5-(5-chloro-2-fluoro-phenyl)-1H-imidazol-4-yl]-3-[4-(4-methylpiperazin-1-yl)-1-piperidyl]quinoline], for which the Ki in test [1] was 0.0398 to 0.316 nM. The IC50 in test [2] is 25.1 to 158 nM.

With `Fc1ccc(Cl)cc1-c1[nH]cnc1-c1ccc2ncc(-c3cnc4n3CCN4)cc2c1` [Compound 17-9, 6-(5-(5-chloro-2-fluorophenyl)-1H-imidazol-4-yl)-3-(2,3-dihydro-1H-imidazo[1,2-a]imidazol-5-yl)quinoline], the Ki in test [1] is 0.0398 to 0.316 nM. Also, in test [2], the IC50 was 25.1 to 158 nM.

With `Fc1ccc(Cl)cc1-c1[nH]cnc1-c1ccc2ncc(-c3cnc4n3CCNC4)cc2c1` [Compound 17-10, 6-[5-(5-chloro-2-fluoro-phenyl)-1H-imidazol-4-yl]-3-(5,6,7,8-tetrahydroimidazo[1,2-a]pyrazin-3-yl)quinoline], in test [1], the Ki was 0.398 to 3.16 nM. Moreover, in test [2], the IC50 is 25.1 to 158 nM.

Regarding `Fc1ccc(Cl)cc1-c1[nH]cnc1-c1ccc2ncc(-c3cc4n(n3)CCNC4)cc2c1` [Compound 17-11, 6-[5-(5-chloro-2-fluoro-phenyl)-1H-imidazol-4-yl]-3-(4,5,6,7-tetrahydropyrazolo[1,5-a]pyrazin-2-yl)quinoline], the Ki in test [1] was 0.0398 to 0.316 nM. Moreover, the IC50 in test [2] was no more than 20 nM.

In the case of `Fc1ccc(Cl)cc1-c1[nH]cnc1-c1ccc2ncc(-c3nnn4c3CNCC4)cc2c1` [Compound 17-12, 6-[5-(5-chloro-2-fluoro-phenyl)-1H-imidazol-4-yl]-3-(4,5,6,7-tetrahydrotriazolo[1,5-a]pyrazin-3-yl)quinoline], in test [1], the Ki was 0.398 to 3.16 nM. The IC50 in test [2] is 25.1 to 158 nM.

For `Fc1ccc(Cl)cc1-c1[nH]cnc1-c1ccc2ncc(-c3nc4n(n3)CCNC4)cc2c1` [Compound 17-13, 6-[5-(5-chloro-2-fluoro-phenyl)-1H-imidazol-4-yl]-3-(5,6,7,8-tetrahydro-[1,2,4]triazolo[1,5-a]pyrazin-2-yl)quinoline], the Ki in test [1] is 0.0398 to 0.316 nM. Further, in test [2], the IC50 is no more than 20 nM.

As for `Fc1ccc(Cl)cc1-c1[nH]cnc1-c1ccc2ncc(-c3cn4c(n3)CNCC4)cc2c1` [Compound 17-14, 6-[5-(5-chloro-2-fluoro-phenyl)-1H-imidazol-4-yl]-3-(5,6,7,8-tetrahydroimidazo[1,2-a]pyrazin-2-yl)quinoline], the Ki in test [1] is 0.0398 to 0.316 nM. The IC50 in test [2] is 25.1 to 158 nM.

In the case of `CNCCn1cc(-c2cnc3ccc(-c4nn[nH]c4-c4cc(Cl)ccc4F)cc3c2)cn1` [Compound 18-1, 2-(4-(6-(5-(5-chloro-2-fluorophenyl)-1H-1,2,3-triazol-4-yl)quinolin-3-yl)-1H-pyrazol-1-yl)-N-methylethan-1-amine], the Ki in test [1] was no more than 0.0316 nM. In test [2], the IC50 was 25.1 to 158 nM.

With `Fc1ccc(Cl)cc1-c1[nH]nnc1-c1ccc2ncc(-c3cn[nH]c3)cc2c1` [Compound 18-2, 6-[5-(5-chloro-2-fluoro-phenyl)-1H-triazol-4-yl]-3-(1H-pyrazol-4-yl)quinoline], the Ki in test [1] was 0.0398 to 0.316 nM. Besides, the IC50 in test [2] is no more than 20 nM.

Turning to `CC(C)N1CCN(CCNc2cnc3ccc(-c4nn[nH]c4-c4cc(Cl)ccc4F)cc3c2)CC1` [Compound 18-3, 6-(5-(5-chloro-2-fluorophenyl)-1H-1,2,3-triazol-4-yl)-N-(2-(4-isopropylpiperazin-1-yl)ethyl)quinolin-3-amine], the Ki in test [1] was 0.398 to 3.16 nM. Also, in test [2], the IC50 was 25.1 to 158 nM.

For the compound `Fc1ccc(Cl)cc1-c1[nH]nnc1-c1ccc2ncc(N3CCNCC3)cc2c1` [Compound 18-5, 6-[5-(5-chloro-2-fluoro-phenyl)-1H-triazol-4-yl]-3-piperazin-1-yl-quinoline], in test [1], the Ki is 0.398 to 3.16 nM. The IC50 in test [2] is 25.1 to 158 nM.

Turning to `CN1CCN(C2CCN(c3cnc4ccc(-c5nn[nH]c5-c5cc(Cl)ccc5F)cc4c3)CC2)CC1` [Compound 18-6, 6-[5-(5-chloro-2-fluoro-phenyl)-1H-triazol-4-yl]-3-[4-(4-methylpiperazin-1-yl)-1-piperidyl]quinoline], the Ki in test [1] was 0.398 to 3.16 nM. For the same compound, the IC50 in test [2] is 25.1 to 158 nM.

The values above are taken from patent US11730720B2, “ALK5 inhibitors” (THERAVANCE BIOPHARMA R&D IP, LLC, priority 2018, dated 2023).
